Reference: ChEMBL document CHEMBL1148943, “Estrogenic and anticarcinogenic properties of kurarinone, a lavandulyl flavanone from the roots of Sophora flavescens” (J Nat Prod, 2004)

What was measured:
[1] = target: T1, Estrogen receptor (Homo sapiens, UniProt P03372); experiment: Estrogenic activity at human estrogen receptor expressing Saccharomyces cerevisiae carrying estrogen responsive sequence containing plasmid assessed as metabolism of chlorophenol res beta-D-galactopyranoside
T1 sequence (P03372 whole entry): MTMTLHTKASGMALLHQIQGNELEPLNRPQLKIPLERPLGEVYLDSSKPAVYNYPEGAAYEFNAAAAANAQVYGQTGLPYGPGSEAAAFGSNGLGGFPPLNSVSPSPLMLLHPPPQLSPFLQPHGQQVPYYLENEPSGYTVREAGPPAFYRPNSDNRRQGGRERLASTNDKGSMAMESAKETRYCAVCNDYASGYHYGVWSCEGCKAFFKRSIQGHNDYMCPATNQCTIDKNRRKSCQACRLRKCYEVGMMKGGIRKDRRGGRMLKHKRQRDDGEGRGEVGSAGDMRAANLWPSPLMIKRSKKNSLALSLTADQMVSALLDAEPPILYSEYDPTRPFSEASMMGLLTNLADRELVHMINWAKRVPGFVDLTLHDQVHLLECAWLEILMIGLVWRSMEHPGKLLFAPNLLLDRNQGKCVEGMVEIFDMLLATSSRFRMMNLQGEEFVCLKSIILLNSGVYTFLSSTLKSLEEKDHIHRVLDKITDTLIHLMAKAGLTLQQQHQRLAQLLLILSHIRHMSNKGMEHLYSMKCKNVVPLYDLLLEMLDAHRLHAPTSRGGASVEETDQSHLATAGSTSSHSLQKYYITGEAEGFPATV

[2] = Cytotoxicity against human MCF7/6 cells at 80 uM after 72 hrs by SRB assay; assay type: functional; conditions: MCF7/6, 72 h
[3] = target: T1, Estrogen receptor; experiment: Estrogenic activity at estrogen receptor in human Ishikawa Var-1 cells assessed as stimulation of alkaline phosphatase activity measured by metabolism of p-nitrophenol phosphatase after 72 hrs; assay type: cell-based
[4] = Cytotoxicity against human MCF7/6 cells after 72 hrs by SRB assay; assay type: functional, cell-based; conditions: MCF7/6, 72 h
[5] = Cytotoxicity against human MCF7/6 cells at 40 uM after 72 hrs by SRB assay; assay type: functional; conditions: MCF7/6, 72 h

C=C(C)C(CC=C(C)C)Cc1c(O)cc(OC)c2c1O[C@H](c1ccc(O)cc1O)CC2=O (stereo not given in full) [KURARINONE]
EC50 [1]: 4.6 µM
inhibition at 80 µM [2]: > 80%
EC50 [3]: 1.66 µM
IC50 [4]: 22.2 µM
inhibition at 40 µM [5]: 60%
